In patent US20200330447A1, “CANCER TREATMENT VIA REPOSITIONED TRICYCLIC ANTI-DEPRESSANT-LIKE DRUGS AS ANTI-CANCER AGENTS AND NEW COMBINATIONS OF SUCH DRUGS” (Board of Supervisors of Louisiana State University and …, priority 2015, published 2020):

What was measured:
Format in all cases: cell-based
[1] = test system: A172 glioblastoma cells; assay: Wound motility (migration) assay, Incucyte; conditions: for motility: 5 or 10 μM, 8 h prior to wounding; for motility (percent migration), single drug: either drug alone at 10 μM
Protocol: (§1) An important aspect of this technology is the showing that deptropine and pizotifen block tumor invasion using 3D assays. […] For this experiment A172 glioblastoma cells were treated with 5 or 10 μM deptropine or pizotifen or drug mix at 5 μM concentration for 8 h prior to the wounding and the addition of matrigel. Upon wounding, cells were allowed to migrate or invade through matrigel in the presence of DMSO, 5 or 10 μM deptropine or pizotifen or the drug mix at 5 μM concentration. EIPA, a known inhibitor of lysosomal outward movement, is the positive control. Motility and invasion were calculated by Incucyte platform that acquires real time images of invasion and motility and calculate the relative wound density percentage at different time points. Percent migration (FIG. 6A) or invasion (FIG. 6B) through matrigel in A172 glioblastoma cells in the presence of DMSO, 5 or 10 μM deptropine or pizotifen or the drug mix at 5 μM concentration. Error bars represent s.e.m. of 5 separate experiments. # statistical significance, p<0.001, versus both 1% FBS and DMSO; *, p<0.01 versus both 1% FBS and DMSO

[2] = test system: U373 glioma cell lines; assay: Lysosome outward movement in U373 cells; conditions: method of FIG. 2
Protocol: A172 glioblastoma cells were treated overnight with 5 or 10 μM deptropine or pizotifen or with the deptropine or pizotifen in combination at 5 μM concentration. The next day, media was change to low pHe media containing deptropine or pizotifen and the cells were incubated for an additional 2 h. EIPA is a known inhibitor of lysosomal outward movement and represents the positive control. At the end of the incubation time, cells were fixed and stained for LAMP-1, filamentous actin and nuclei. Representative merged IF images depicting the effect of pHe 7.4, pHe 6.4, DMSO or deptropine and pizotifen on the distribution of lysosomes in A172 glioblastoma cells. On color versions of the Figure, red puncta are lysosomes, blue is nuclei and green is actin. As could be seen, lysosomes appear more peripherally distributed in A172 glioma cells than in cells treated with concentrations of 5 to 10 micromolar deptropine or pizotifen.
In an additional experiment, following the method whose results are shown in FIG. 2 above but with different cells, the broad range and general effectiveness of deptropine and pizotifen is shown beyond just in A172 glioblastoma cells. Specifically, deptropine and pizotifen were applied to U373 glioma cell lines instead of A172 glioblastoma cells.

[3] = test system: A172 glioblastoma cells; assay: Wound invasion through matrigel, Incucyte; conditions: for invasion: 5 or 10 μM, 8 h prior to wounding and addition of matrigel
Protocol: as §1

[4] = test system: Erk signaling pathway; assay: Lysosome inward movement in the presence of the MAPK inhibitor U0126, and Erk western blot; conditions: A172 cells, results not shown
Protocol: Turning to FIG. 8, deptropine and pizotifen are shown to act through the Erk signaling pathway. In this experiment, A172 cells were treated with deptropine and pizotifen at 5 μM concentrations for 4 hours in the presence of the MAPK inhibitor U0126. I.F. microscopy was then performed. This helped allow the determination of the mechanism of action of deptropine and pizotifen.

[5] = test system: A172 glioblastoma cells; assay: Growth factor (HGF, EGF) induced trafficking of lysosomes to cell periphery; conditions: 10 μM overnight, HGF (33 ng/ml) or EGF (100 ng/ml)
Protocol: In this embodiment deptropine and pizotifen also block lysosome peripheral movement in glioma cells treated with the growth factors HGF and EGF. Both of these growth factors interact with their receptors, c-Met and EGFR, respectively to induce glioma invasion. In this example, A172 glioblastoma cells were treated overnight with 10 μM deptropine or pizotifen in the presence or absence of HGF (33 ng/ml) or EGF (100 ng/ml). At the end of the incubation time, cells were fixed and stained for LAMP-1, filamentous actin, and nuclei. Representative merged IF images depicting the effect of DMSO, 10 μM deptropine or pizotifen and/or HGF, EGF on the distribution of lysosomes (red in color images) in A172 glioblastoma cells. Also shown here are actin (green in color images) and nuclei (blue in color images).

[6] = test system: LC3-II; assay: Autophagy: LC3-I/LC3-II western blot and GFP-LC3II microscopy; conditions: A172 cells, overnight; for levels of LC3-II, western blot: deptropine 5 or 10 micromolar, pizotifen 5 micromolar; for association of GFP-LC3-II with puncta representing autophagosomes: microscopy
Protocol: A further embodiment of this technology is the use of deptropine and pizotifen to induce autophagy. A172 cells were treated with EIPA (1), Serum (2), Serum Free (3), DMSO (4, solvent control), rapamycin 0.5 micromolar (5), one micromolar (6), deptropine at 5 micromolar (7), 10 micromolar (8) or pizotifen at 5 micromolar (9) overnight and GFP-LC3II was visualized by microscopy or western blot analysis was performed to detect LC3-I and LC3-II forms.

[7] = test system: A172 cells; assay: Invasive structures in 3D culture

Compound: CN1[C@@H]2CC[C@H]1C[C@@H](OC1c3ccccc3CCc3ccccc31)C2 [deptropine, 3a-[(10, 11-dihydro-5H-dibenzo[a,d]cyclohepten-5-yl)oxy]1aH,5aH-tropane]
- motility [1]: decrease
- motility (percent migration), single drug [1]: reduces motility but to a level that is determined to be significant
- lysosome outward movement [2]: block lysosome outward movement
- invasion [3]: decrease
- Erk signaling pathway, western blot [4]: activate the Erk signaling pathway
- trafficking of lysosomes to cell periphery induced by growth factors [5]: block trafficking of lysosomes to cell periphery
- levels of LC3-II, western blot [6]: increases the levels of the proteins LC3-II
- association of GFP-LC3-II with puncta representing autophagosomes [6]: increase the association GFP-LC3-II with puncta
- number of invasive structures formed in 3D culture [7]: effectively reduce the number of invasive structures

Compound: CN1CCC(=C2c3ccccc3CCc3sccc32)CC1 [pizotifen, 4-(1-methyl-4-piperidylidine)-9,10-dihydro-4H-benzo-[4,5]cyclohepta[1,2]-thiophene]
- motility [1]: decrease
- motility (percent migration), single drug [1]: reduces motility but to a level that is determined to be significant
- lysosome outward movement [2]: block lysosome outward movement
- invasion through matrigel (percent invasion) ([3]; 10 μM): significantly reduces invasion
- invasion [3]: decrease
- Erk signaling pathway, western blot [4]: activate the Erk signaling pathway
- trafficking of lysosomes to cell periphery induced by growth factors [5]: block trafficking of lysosomes to cell periphery
- levels of LC3-II, western blot [6]: increases the levels of the proteins LC3-II
- association of GFP-LC3-II with puncta representing autophagosomes [6]: increase the association GFP-LC3-II with puncta
- number of invasive structures formed in 3D culture [7]: effectively reduce the number of invasive structures
